Patent US12473295B2, “Substituted straight chain spiro derivatives” (Janssen Pharmaceutica NV, priority 2019, dated 2025)
Structures can show the parent of a compound that is named as a salt. Where two headings read alike, the source gives them in different places.

Tests used:
MEIS1 mRNA = MEIS1 mRNA expression assay (Quantigene Singleplex) in MOLM14 cells; type: cell-based, human;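 also: MEIS1 transcript levels read by probe hybridization and normalized to RPL28 mRNA, with IC50 fitted to fold changes across a rising compound concentration series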
OCI-AML3 cells = experiment: Proliferation assay (spheroid growth, 8 days), OCI-AML3; type: cell-based, human
In short: (§1)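 8-day spheroid growth in ultra-low attachment plates; seeding 200 cells (MOLM14, OCI-AML3) or 300 (KO-52); DMSO 0.3%. Day-8 imaging, confluence vs DMSO (0%) and top reference dose (baseline); IC50 by variable-slope fit.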

hERG potassium channel = hERG potassium channel (Homo sapiens (Human), UniProt Q12809); experiment: Effect on membrane potassium current IKr in hERG transfected CHO cells, Protocol 1 (QPatch); type: cell-based
Description: 8) Effect on the Membrane Potassium Current IKr in hERG Transfected Cell Lines
• CHO Chinese hamster ovary cell line • DMSO Dimethylsulfoxide • hERG human ether-á-go-go-related gene • IKr rapidly activating delayed-rectifier K^+ current Methods
Experiments were performed using CHO cells stably expressing the hERG potassium channel. Cells were grown at 37° C. and 5% CO2 in culture flasks in Ham's F12 Medium supplemented with 10% heat-inactivated fetal calf serum, hygromycin B (100 μg/ml) and geneticin (100 μg/ml). For use in the automated patch-clamp system QPatch (Sophion) cells were harvested to obtain cell suspension of single cells.
Solutions: The bath solution contained (in mM) 145 NaCl, 4 KCl, 10 glucose, 10 HEPES ((4-(2-hydroxyethyl)-1-piperazineethanesulfonic acid), 2 CaCl2 and 1 MgCl2 (pH 7.4 with NaOH). The pipette solution contained (in mM) 120 KCl, 10 EGTA (Ethylene glycol-bis(2-aminoethylether)-N,N,N′,N′-tetraacetic acid), 10 HEPES, 5.374 CaCl2 and 1.75 MgCl2 (pH 7.2 with KOH).
Patch-clamp experiments were performed in the voltage-clamp mode and whole-cell currents were recorded with an automated patch-clamp assay utilizing the QPatch system (Sophion). Current signals were amplified and digitized, stored and analyzed by using the QPatch assay software.
The holding potential was −80 mV. The hERG current (K^+-selective outward current) was determined as the maximal tail current at −40 mV after a 2 second depolarization to +60 mV. Pulse cycling rate was 15 s. A short pulse (90 ms) to −40 mV served as a baseline step to calculate the tail current amplitude. After establishing whole-cell configuration and a stability period, the solvent control (0.3% DMSO) was applied for 5 minutes followed by the test substance by four increasing concentrations of 3×10^−7 M, 3×10^−6 M, 10^−5 M and 3×10^−5 M. Each concentration of the test substance was applied twice. The effect of each concentration was determined after 5 min as an average current of 3 sequential voltage pulses. To determine the extent of block the residual current was compared with vehicle pre-treatment.
Concentration/response relations were calculated by non-linear least-squares fits to the individual data points. The half-maximal inhibiting concentration (IC50) was calculated by the fitting routine.

MOLM14 cells = experiment: Proliferation assay (spheroid growth, 8 days), MOLM14; type: cell-based, human; settings: MOLM14, 8 days, read-out: spheroid assay_OneTime MOLM14 IC50;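 also: spheroid size read as confluence by live-cell imaging, compounds added at a range of concentrations with 0.3% DMSO, DMSO-treated wells = 0%, highest reference dose = low control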
[1] = target: menin/MLL (terbium chelate-labeled menin, FITC-MBM1 peptide) (Homo sapiens (Human), UniProt O00255); experiment: Menin/MLL homogenous time-resolved fluorescence (HTRF) assay; type: binding;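 also: IC50 from percent inhibition of HTRF signal, normalized between wells without competitor and wells with a saturating competitor that displaces FITC-MBM1 from His-tagged menin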
KO-52 cells = experiment: Proliferation assay (spheroid growth, 8 days), KO-52 control cell line; type: cell-based, human; settings: read-out: spheroid assay_OneTime KO-52 IC50
In short: as §1

[2] = HTRF-30 min incubation IC50, 30 min incubation
[3] = Homo sapiens, MOLM-14, 48 h, 48 hours incubation
[4] = Homo sapiens, OCI-AML-3, […], OCI-AML3, 8 days

hERG potassium channel, sequence (Q12809 whole entry): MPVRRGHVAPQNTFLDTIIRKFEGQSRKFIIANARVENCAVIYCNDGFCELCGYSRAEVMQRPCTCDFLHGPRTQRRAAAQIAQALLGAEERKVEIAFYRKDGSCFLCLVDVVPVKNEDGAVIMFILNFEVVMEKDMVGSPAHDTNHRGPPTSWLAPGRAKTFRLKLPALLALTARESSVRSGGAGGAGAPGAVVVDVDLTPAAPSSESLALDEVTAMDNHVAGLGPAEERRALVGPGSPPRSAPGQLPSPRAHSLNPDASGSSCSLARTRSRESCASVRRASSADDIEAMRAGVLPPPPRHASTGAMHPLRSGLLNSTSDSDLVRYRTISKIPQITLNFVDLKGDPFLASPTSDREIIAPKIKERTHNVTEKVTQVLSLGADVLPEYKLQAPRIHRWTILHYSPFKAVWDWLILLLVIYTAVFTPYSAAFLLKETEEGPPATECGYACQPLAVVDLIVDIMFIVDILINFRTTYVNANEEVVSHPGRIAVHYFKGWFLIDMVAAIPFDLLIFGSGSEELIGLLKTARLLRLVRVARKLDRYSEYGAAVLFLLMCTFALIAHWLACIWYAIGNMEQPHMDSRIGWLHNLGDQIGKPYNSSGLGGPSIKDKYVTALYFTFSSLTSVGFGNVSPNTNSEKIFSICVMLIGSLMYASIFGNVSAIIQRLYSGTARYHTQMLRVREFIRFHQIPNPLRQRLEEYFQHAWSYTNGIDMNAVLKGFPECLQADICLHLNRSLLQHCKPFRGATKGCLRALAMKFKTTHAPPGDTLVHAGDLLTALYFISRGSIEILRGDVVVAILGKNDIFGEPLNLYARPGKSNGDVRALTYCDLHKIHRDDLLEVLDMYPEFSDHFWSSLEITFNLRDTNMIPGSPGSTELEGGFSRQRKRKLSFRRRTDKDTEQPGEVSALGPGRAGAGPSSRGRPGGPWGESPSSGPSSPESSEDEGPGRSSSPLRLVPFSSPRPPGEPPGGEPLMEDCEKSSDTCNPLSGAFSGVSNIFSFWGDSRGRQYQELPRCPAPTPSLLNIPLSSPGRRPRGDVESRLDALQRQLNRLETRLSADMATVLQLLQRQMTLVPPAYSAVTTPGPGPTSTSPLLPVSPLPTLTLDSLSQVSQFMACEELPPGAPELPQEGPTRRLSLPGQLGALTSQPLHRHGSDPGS
menin/MLL (terbium chelate-labeled menin, FITC-MBM1 peptide), sequence (O00255 other isoform, or with tags, fused parts or gaps): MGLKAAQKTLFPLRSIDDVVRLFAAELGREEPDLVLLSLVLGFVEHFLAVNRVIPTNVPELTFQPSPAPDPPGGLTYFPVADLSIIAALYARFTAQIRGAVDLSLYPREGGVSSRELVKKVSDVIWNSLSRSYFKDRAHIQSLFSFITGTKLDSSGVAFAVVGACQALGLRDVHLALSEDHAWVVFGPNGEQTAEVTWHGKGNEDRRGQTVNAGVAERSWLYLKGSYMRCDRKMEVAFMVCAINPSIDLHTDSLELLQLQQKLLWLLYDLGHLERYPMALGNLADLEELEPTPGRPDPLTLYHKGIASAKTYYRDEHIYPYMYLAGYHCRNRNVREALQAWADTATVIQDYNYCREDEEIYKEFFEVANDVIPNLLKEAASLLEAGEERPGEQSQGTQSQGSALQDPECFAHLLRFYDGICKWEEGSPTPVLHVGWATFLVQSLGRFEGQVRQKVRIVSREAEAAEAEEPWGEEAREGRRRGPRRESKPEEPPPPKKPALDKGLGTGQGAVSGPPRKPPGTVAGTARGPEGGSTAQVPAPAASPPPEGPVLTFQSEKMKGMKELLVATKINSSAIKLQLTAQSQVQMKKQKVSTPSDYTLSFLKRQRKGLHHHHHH

SMILES | IC50 [1, 2] | IC50 (MEIS1 mRNA; [3]) | IC50 (OCI-AML3 cells; [4]) | IC50 (MOLM14 cells; Homo sapiens, MOLM-14, […]) | IC50 (MEIS1 mRNA; 48 hours incubation) | IC50 (OCI-AML3 cells; OCI-AML3, 8 days) | IC50 (MOLM14 cells) | IC50 ([1]; read-out: HTRF-30 min incubation IC50, 30 min incubation) | IC50 (MEIS1 mRNA; Homo sapiens, MOLM-14, 48 hours incubation) | IC50 (OCI-AML3 cells; Homo sapiens, OCI-AML-3, OCI-AML3, 8 days) | IC50 (hERG potassium channel) | IC50 (MOLM14 cells; Homo sapiens, MOLM-14) | IC50 (KO-52 cells; Homo sapiens) | IC50 (KO-52 cells; Homo sapiens, […]) | IC50 (KO-52 cells)
CCN(C(=O)c1cc(F)ccc1Oc1nncnc1N1CCC2(C1)CN([C@H](CCCNCCC#N)C(C)C)C2)C(C)C [Compound 12, (R)-2-((5(2-(6-((2-cyanoethyl)amino)-2-methylhexan-3-yl)-2,6-diazaspiro[3.4]octan-6-yl)-1,2,4-triazin-6-yl)oxy)-N-ethyl-5-fluoro-N-isopropylbenzamide] | 0.12 nM | – | – | – | – | – | – | – | 39 nM | 630 nM | > 30200 nM | 36 nM | 8240 nM | – | –
CCN(C(=O)c1cc(F)ccc1Oc1nncnc1N1CCC2(C1)CN([C@H](CCCN(C)C)C(C)C)C2)C(C)C [Compound 4, (R)-2-((5-(2-(6-(dimethylamino)-2-methylhexan-3-yl)-2,6-diazaspiro[3.4]octan-6-yl)-1,2,4-triazin-6-yl)oxy)-N-ethyl-5-fluoro-N-isopropylbenzamide] | 0.095 nM | 20 nM | 390 nM | 30 nM | – | – | – | – | – | – | > 30200 nM | – | – | > 15000 nM | –
CCOCCN(C)CCC[C@H](C(C)C)N1CC2(CCN(c3ncnnc3Oc3ccc(F)cc3C(=O)N(CC)C(C)C)C2)C1 [Compound 258, (R)-2-((5-(2-(6-((2-ethoxyethyl)(methyl)amino)-2-methylhexan-3-yl)-2,6-diazaspiro[3.4]octan-6-yl)-1,2,4-triazin-6-yl)oxy)-N-ethyl-5-fluoro-N-isopropylbenzamide oxalate] | 0.33 nM | 26 nM | 740 nM | 27 nM | – | – | – | – | – | – | > 30200 nM | – | – | 5440 nM | –
CC(C)[C@@H](CCCN(C)C)N1CC2(CCN(c3ccnnc3Oc3ccc(F)cc3C(=O)N(C(C)C)C(C)C)C2)C1 (single isomer, unassigned) [Compound 75, (*R)-2-((4-(2-(6-(dimethylamino)-2-methylhexan-3-yl)-2,6-diazaspiro[3.4]octan-6-yl)pyridazin-3-yl)oxy)-5-fluoro-N,N-diisopropylbenzamide] | – | – | – | – | 140 nM | 410 nM | 53 nM | 0.21 nM | – | – | > 30200 nM | – | – | – | > 15000 nM
CCN(C(=O)c1cc(F)ccc1Oc1nncnc1N1CCC2(C1)CN([C@H](CCCN(C)CC(C)OC)C(C)C)C2)C(C)C (stereo partly drawn) [Compound 252, N-ethyl-5-fluoro-N-isopropyl-2-((5-(2-((3R)-6-((2-methoxypropyl)(methyl)amino)-2-methylhexan-3-yl)-2,6-diazaspiro[3.4]octan-6-yl)-1,2,4-triazin-6-yl)oxy)benzamide oxalate] | 0.065 nM | 53 nM | 640 nM | 32 nM | – | – | – | – | – | – | > 30200 nM | – | – | 7260 nM | –
CCN(C(=O)c1cc(F)ccc1Oc1nncnc1N1CCC2(C1)CN(C(CCCNCCS(C)(=O)=O)C(C)C)C2)C(C)C (stereo not drawn) [Compound 18, N-ethyl-5-fluoro-N-isopropyl-2-((5-(2-(2-methyl-6-((2-(methylsulfonyl)ethyl)amino)hexan-3-yl)-2,6-diazaspiro[3.4]octan-6-yl)-1,2,4-triazin-6-yl)oxy)benzamide] | 0.3 nM | 150 nM | 660 nM | 120 nM | – | – | – | – | – | – | > 30200 nM | – | – | > 15000 nM | –

The remaining compounds from weak to strong by IC50 [1, 2], led by results:

IC50 [1, 2] | IC50 (MEIS1 mRNA; [3]) | IC50 (OCI-AML3 cells; [4]) | IC50 (MOLM14 cells; Homo sapiens, MOLM-14, […]) | IC50 (MEIS1 mRNA; 48 hours incubation) | IC50 (OCI-AML3 cells; OCI-AML3, 8 days) | IC50 (MOLM14 cells) | IC50 ([1]; read-out: HTRF-30 min incubation IC50, 30 min incubation) | SMILES | IC50 (MEIS1 mRNA; Homo sapiens, MOLM-14, 48 hours incubation) | IC50 (OCI-AML3 cells; Homo sapiens, OCI-AML-3, OCI-AML3, 8 days) | IC50 (hERG potassium channel) | IC50 (MOLM14 cells; Homo sapiens, MOLM-14) | IC50 (KO-52 cells; Homo sapiens) | IC50 (KO-52 cells; Homo sapiens, […]) | IC50 (KO-52 cells)
0.87 nM | > 1000 nM | 3440 nM | 3840 nM | – | – | – | – | CCN(C(=O)c1cc(F)ccc1Oc1nncnc1N1CCC2(C1)CN([C@H](CCC(C)(C)NC(C)=O)C(C)C)C2)C(C)C (single isomer, unassigned) [Compound 34] | – | – | > 30200 nM | – | – | > 15000 nM | –
0.067 nM | 99 nM | 470 nM | 130 nM | – | – | – | – | CCN(C(=O)c1cc(F)ccc1Oc1nncnc1N1CCC2(C1)CN([C@H](CCC(C)(C)N)C(C)C)C2)C(C)C (single isomer, unassigned) [Compound 30, (*R)-2-((5-(2-(6-amino-2,6-dimethylheptan-3-yl)-2,6-diazaspiro[3.4]octan-6-yl)-1,2,4-triazin-6-yl)oxy)-N-ethyl-5-fluoro-N-isopropylbenzamide] | – | – | > 30200 nM | – | – | > 15000 nM | –
